From patent US20170342025A1, “ANTIMICROBIAL COMPOUNDS, COMPOSITIONS AND METHODS” (Swansea University, priority 2014, published 2017)
Like-named read-outs stand apart in the source and are kept apart here.

Legend:
[1] = tested on: Escherichia coli (strain JM109); assay: MIC determination against Escherichia coli (Andrews protocol); format: cell-based; settings: for MIC: Escherichia coli, read-out: MIC E. coli
Protocol: (§1) Minimum Inhibitory Concentrations (MICs) for the compounds prepared were determined against Escherichia coli (strain JM109) and Staphylococcus aureus (strain 9518) using the protocols described by Andrews (J. Antimicrob. Chemother., 2001, 48, Suppl. S1, 5-16).

[2] = tested on: Staphylococcus aureus (strain 9518); assay: MIC determination against Staphylococcus aureus (Andrews protocol); format: cell-based; settings: for MIC: Staphylococcus aureus, read-out: MIC S. aureus
Protocol: as §1

[3] = Staphylococcus aureus strain 9518

SMILES	MIC [1] [µg/mL]	MIC [2] [µg/mL]	MIC ([1]; Escherichia coli strain JM109) [µg/mL]	MIC [2, 3] [µg/mL]	also measured
N=C(N)NCc1cccc(OCc2ccccc2)c1.O=C(O)C(F)(F)F [Compound 4a, 1-{[3-(benzyloxy)phenyl]methyl}guanidine 2,2,2-trifluoroacetate]	> 100	1 to 10	–	–	–
N=C(N)NCc1cccc(OCc2ccc(Cl)cc2)c1.O=C(O)C(F)(F)F [Compound 4b, 1-({3-[(4-chlorophenyl)methoxy]phenyl}methyl)guanidine 2,2,2-trifluoroacetate]	1 to 10	1 to 10	–	–	–
N=C(N)NCc1cccc(OCc2cccc(Cl)c2)c1.O=C(O)C(F)(F)F [Compound 4c, 1-({3-[(3-chlorophenyl)methoxy]phenyl}methyl)guanidine 2,2,2-trifluoroacetate]	10 to 32	10 to 32	–	–	–
N=C(N)NCc1cccc(OCc2ccc(Cl)cc2Cl)c1.O=C(O)C(F)(F)F [Compound 4d, 1-({3-[(2,4-dichlorophenyl)methoxy]phenyl}methyl)guanidine 2,2,2-trifluoroacetate]	1 to 10	> 100	–	–	–
N=C(N)NCc1cccc(OCc2ccc(Cl)c(Cl)c2)c1.O=C(O)C(F)(F)F [Compound 4e, 1-({3-[(3,4-dichlorophenyl)methoxy]phenyl}methyl)guanidine 2,2,2-trifluoroacetate]	10 to 32	1 to 10	–	–	–
N=C(N)NCc1cccc(OCc2cc(Cl)ccc2Cl)c1.O=C(O)C(F)(F)F [Compound 4f, 1-({3-[(2,5-dichlorophenyl)methoxy]phenyl}methyl)guanidine 2,2,2-trifluoroacetate]	10 to 32	1 to 10	–	–	–
N=C(N)NCc1cccc(OCc2cccc(Cl)c2Cl)c1.O=C(O)C(F)(F)F [Compound 4g, 1-({3-[(2,3-dichlorophenyl)methoxy]phenyl}methyl)guanidine 2,2,2-trifluoroacetate]	10 to 32	10 to 32	–	–	–
N=C(N)NCc1cccc(OCc2ccc(C(F)(F)F)cc2)c1.O=C(O)C(F)(F)F [Compound 4h, 1-[(3-{[4-(trifluoromethyl)phenyl]methoxy}phenyl)methyl]guanidine 2,2,2-trifluoroacetate]	1 to 10	1 to 10	–	–	–
N=C(N)NCc1cccc(OCc2cccc(C(F)(F)F)c2)c1.O=C(O)C(F)(F)F [Compound 4i, 1-[(3-{[3-(trifluoromethyl)phenyl]methoxy}phenyl)methyl]guanidine 2,2,2-trifluoroacetate]	1 to 10	1 to 10	–	–	–
N=C(N)NCc1cccc(OCc2ccc(Br)cc2)c1.O=C(O)C(F)(F)F [Compound 4j, 1-({3-[(4-bromophenyl)methoxy]phenyl}methyl)guanidine 2,2,2-trifluoroacetate]	1 to 10	10 to 32	–	–	–
N=C(N)NCc1cccc(OCc2ccc(F)cc2)c1.O=C(O)C(F)(F)F [Compound 4k, 1-({3-[(4-fluorophenyl)methoxy]phenyl}methyl)guanidine 2,2,2-trifluoroacetate]	10 to 32	32 to 100	–	–	–
COc1ccc(CNC(=N)N)cc1OCc1cccc(Cl)c1.O=C(O)C(F)(F)F [Compound 4m, 1-({3-[(3-chlorophenyl)methoxy]-4-methoxyphenyl}methyl)guanidine 2,2,2-trifluoroacetate]	> 100	> 100	–	–	–
COc1ccc(CNC(=N)N)cc1OCc1ccc(Cl)cc1.O=C(O)C(F)(F)F [Compound 4n, 1-({3-[(4-chlorophenyl)methoxy]-4-methoxyphenyl}methyl)guanidine 2,2,2-trifluoroacetate]	> 100	32 to 100	–	–	–
N=C(N)NCc1c(F)ccc(OCc2cccc(Cl)c2Cl)c1F.O=C(O)C(F)(F)F [Compound 4o, 1-({3-[(2,3-dichlorophenyl)methoxy]-2,6-difluorophenyl}methyl)guanidine 2,2,2-trifluoroacetate]	1 to 10	1 to 10	–	–	–
N=C(N)NCc1c(F)ccc(OCc2cccc(C(F)(F)F)c2)c1F.O=C(O)C(F)(F)F [Compound 4p, 1-[(2,6-difluoro-3-{[3-(trifluoromethyl)phenyl]methoxy}phenyl)methyl]guanidine 2,2,2-trifluoroacetate]	1 to 10	1 to 10	–	–	–
COCCN(Cc1cccc(OCc2cccc(Cl)c2Cl)c1)C(=N)N.O=C(O)C(F)(F)F [Compound 9b, 1-({3-[(2,3-dichlorophenyl)methoxy]phenyl}methyl)-1-(2-methoxyethyl) guanidine 2,2,2-trifluoroacetate]	–	–	10 to 32	10 to 32	–
CN(Cc1cccc(OCc2cccc(Cl)c2Cl)c1)C(=N)N.Cl [Compound 10a, 1-({3-[(2,3-dichlorophenyl)methoxy]phenyl}methyl)-1-methylguanidine hydrochloride]	–	–	32 to 100	10 to 32	–
CNC(=N)NCc1cccc(OCc2cccc(Cl)c2Cl)c1.O=C(O)C(F)(F)F [Compound 15, 3-({3-[(2,3-dichlorophenyl)methoxy]phenyl}methyl)-1-methylguanidine 2,2,2-trifluoroacetate]	–	–	10 to 32	10 to 32	–
N=C(N)NCc1ccc(OCc2ccccc2)cc1.O=C(O)C(F)(F)F [Compound 19a, 1-(4-(benzyloxy)benzyl)guanidine 2,2,2-trifluoroacetate]	–	–	> 100	10 to 32	–

SMILES	MIC [1] [µg/mL]	MIC [2] [µg/mL]	MIC ([1]; Escherichia coli strain JM109) [µg/mL]	MIC [2, 3] [µg/mL]	also measured
N=C(N)NCc1ccc(OCc2ccc(Cl)cc2)cc1.O=C(O)C(F)(F)F [Compound 19b, 1-(4-((4-chlorobenzyl)oxy)benzyl)guanidine 2,2,2-trifluoroacetate]	–	–	> 100	32 to 100	–
N=C(N)NCc1ccc(OCc2cccc(Cl)c2)cc1.O=C(O)C(F)(F)F [Compound 19c, 1-(4-((3-chlorobenzyl)oxy)benzyl)guanidine 2,2,2-trifluoroacetate]	–	–	> 100	10 to 32	–
N=C(N)NCc1ccc(OCc2ccc(Cl)c(Cl)c2)cc1.O=C(O)C(F)(F)F [Compound 19d, 1-(4-((3,4-dichlorobenzyl)oxy)benzyl)guanidine 2,2,2-trifluoroacetate]	–	–	10 to 32	1 to 10	–
N=C(N)Nc1ccc(OCc2ccccc2)cc1.O=C(O)C(F)(F)F [Compound 23a, 1-[4-(benzyloxy)phenyl]guanidine 2,2,2-trifluoroacetate]	–	–	> 100	1 to 10	–
N=C(N)Nc1ccc(OCc2ccc(Cl)cc2)cc1.O=C(O)C(F)(F)F [Compound 23b, 1-{4-[(4-chlorophenyl)methoxy]phenyl}guanidine 2,2,2-trifluoroacetate]	–	–	> 100	> 100	–
N=C(N)Nc1ccc(OCc2cccc(Cl)c2)cc1.O=C(O)C(F)(F)F [Compound 23c, 1-{4-[(3-chlorophenyl)methoxy]phenyl}guanidine 2,2,2-trifluoroacetate]	–	–	> 100	10 to 32	–
N=C(N)N1CCc2ccc(Br)cc2C1.O=C(O)C(F)(F)F [Compound 26, 7-bromo-1,2,3,4-tetrahydroisoquinoline-2-carboximidamid 2,2,2-trifluoroacetate]	–	–	> 100	> 100	–
CC(C)(C)OC(=O)NC(=N)N1CCc2ccc(-c3ccc(C(C)(C)C)cc3)cc2C1.O=C(O)C(F)(F)F [Compound 28, tert-butyl N-[7-(4-tert-butylphenyl)-1,2,3,4-tetrahydroisoquinoline-2-carboximidoyl]carbamate 2,2,2-trifluoroacetate]	–	–	> 100	32 to 100	–
N=C(N)N1CCc2ccc(OCc3cccc(Cl)c3Cl)cc2C1.O=C(O)C(F)(F)F [Compound 33, 7-[(2,3-dichlorophenyl)methoxy]-1,2,3,4-tetrahydroisoquinoline-2-carboximidamide 2,2,2-trifluoroacetate]	–	–	1 to 10	1 to 10	–
Cl.N=C(N)N1CCc2c(cccc2OCc2cccc(Cl)c2Cl)C1 [Compound 38, 5-[(2,3-dichlorophenyl)methoxy]-1,2,3,4-tetrahydroisoquinoline-2-carboximidamide hydrochloride]	–	–	10 to 32	10 to 32	–
N=C(N)NOCc1cccc(-c2ccccc2)c1.O=C(O)C(F)(F)F [Compound 41a, 1-[(3-phenylphenyl)methoxy]guanidine 2,2,2-trifluoroacetate]	–	–	> 100	> 100	–
N=C(N)NOCc1cccc(Oc2ccccc2)c1.O=C(O)C(F)(F)F [Compound 41b, 1-[(3-phenoxyphenyl)methoxy]guanidine 2,2,2-trifluoroacetate]	–	–	> 100	> 100	–
N=C(N)N1CCN(c2ccc(Cl)cc2)CC1.O=C(O)C(F)(F)F.O=C(O)C(F)(F)F [Compound 44a, 4-(4-chlorophenyl)piperazine-1-carboximidamide bis-(2,2,2-trifluoroacetate)]	–	–	> 100	> 100	–
COc1cccc(N2CCN(C(=N)N)CC2)c1.O=C(O)C(F)(F)F.O=C(O)C(F)(F)F [Compound 44b, 4-(3-methoxyphenyl)piperazine-1-carboximidamide bis-(2,2,2-trifluoroacetate)]	–	–	> 100	> 100	–
N=C(N)NC(=O)c1cccc(OCc2ccccc2)c1.O=C(O)C(F)(F)F [Compound 47, 3-(benzyloxy)-N-carbamimidoylbenzamide 2,2,2-trifluoroacetate]	32 to 100	10 to 32	–	–	–
Cl.N=C(N)N/N=C/c1cccc(OCc2cccc(Cl)c2)c1 [Compound 49e, (E)-Amino(2-(3-((3-chlorobenzyl)oxy)benzylidene)hydrazinyl)methaniminium chloride]	–	–	1 to 10	10 to 32	–
Cl.N=C(N)N/N=C/c1cccc(OCc2ccc(C(F)(F)F)cc2)c1 [Compound 49f, (E)-Amino(2-(3-((4-(trifluoromethyl)benzyl)oxy)benzylidene)hydrazinyl) methaniminium chloride]	–	–	–	–	MIC E. coli ([1]; Escherichia coli strain JM109): ++ (MIC 10-32 μg/mL); MIC S. aureus [2, 3]: +++ (MIC 1-10 μg/mL)
CC(=O)O.[H]/N=C(\N)NN=Cc1ccc(OC)c(OCc2ccc(Cl)c(Cl)c2)c1 [Compound 49g, (E)-2-(3-((3,4-dichlorobenzyl)oxy)-4-methoxybenzylidene)hydrazine-1-carboximidamide acetate]	–	–	1 to 10	10 to 32	–
